Calls of active or inactive are those of the source. No cut-off for these calls is given here.
How the values were obtained:
[1] = Stability in culture medium at 200 uM after 24 hrs by HPLC analysis (reference value: 100%); format: physicochemical; details: read-out: Stability
[2] = Stability in culture medium at 200 uM after 6 hrs by HPLC analysis (reference value: 100%); format: physicochemical; details: read-out: Stability
[3] = Stability in human HeLa cells at 200 uM after 6 hrs by HPLC analysis (reference value: 100%); format: ADME, cell-based; details: read-out: Stability
[4] = Stability in human HeLa cells at 200 uM after 12 hrs by HPLC analysis (reference value: 100%); format: ADME, cell-based; details: read-out: Stability
[5] = Stability in culture medium at 200 uM after 3 hrs by HPLC analysis (reference value: 100%); format: physicochemical; details: read-out: Stability
Pyruvate kinase PKM [6] = molecular target: T1, Pyruvate kinase PKM (Homo sapiens, UniProt P14618); test: Binding affinity to PKM2 in human HeLa cell lysates at 200 uM after 6 hrs by silver staining based LC-MS/MS pull down analysis
Target sequence in this assay (P14618 2-531 limits assumed): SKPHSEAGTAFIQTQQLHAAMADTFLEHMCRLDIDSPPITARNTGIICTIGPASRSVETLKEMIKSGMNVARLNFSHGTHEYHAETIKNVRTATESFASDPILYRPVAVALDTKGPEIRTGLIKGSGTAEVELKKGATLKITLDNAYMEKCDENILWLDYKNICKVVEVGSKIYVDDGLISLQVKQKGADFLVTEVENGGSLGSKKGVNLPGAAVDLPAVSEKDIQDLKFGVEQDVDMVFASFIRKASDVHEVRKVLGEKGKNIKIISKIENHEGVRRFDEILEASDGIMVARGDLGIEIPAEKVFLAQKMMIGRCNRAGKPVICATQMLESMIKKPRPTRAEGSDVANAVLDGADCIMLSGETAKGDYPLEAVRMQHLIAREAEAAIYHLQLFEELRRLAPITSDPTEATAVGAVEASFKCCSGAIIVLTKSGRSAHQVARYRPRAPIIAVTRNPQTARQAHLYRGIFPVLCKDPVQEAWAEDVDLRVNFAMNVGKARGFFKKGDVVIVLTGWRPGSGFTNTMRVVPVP

[7] = Stability in human HeLa cells at 200 uM after 3 hrs by HPLC analysis (reference value: 100%); format: ADME, cell-based; details: read-out: Stability
[8] = Stability in culture medium at 200 uM after 12 hrs by HPLC analysis (reference value: 100%); format: physicochemical; details: read-out: Stability
[9] = Stability in human HeLa cells at 200 uM after 24 hrs by HPLC analysis (reference value: 100%); format: ADME, cell-based; details: read-out: Stability
HeLa [10] = test: Antiproliferative activity against human HeLa cells at 50 to 400 uM after 48 hrs by MTS assay; format: functional, cell-based
Homo sapiens = organism: Homo sapiens; test: Selectivity ratio of IC50 for recombinant human N-terminal His6/SUMO-tagged PKM1 expressed in Escherichia coli BL21 to IC50 for recombinant human N-terminal His6/SUMO-tagged PKM2 expressed in Escherichia coli BL21
Pyruvate kinase PKM [11] = molecular target: T1, Pyruvate kinase PKM; test: Inhibition of recombinant human N-terminal His6/SUMO-tagged PKM2 expressed in Escherichia coli BL21 using PEP as substrate incubated for 30 mins in presence of ADP by spectrophotometric based LDH enzyme coupled assay
Target sequence in this assay (P14618 whole entry): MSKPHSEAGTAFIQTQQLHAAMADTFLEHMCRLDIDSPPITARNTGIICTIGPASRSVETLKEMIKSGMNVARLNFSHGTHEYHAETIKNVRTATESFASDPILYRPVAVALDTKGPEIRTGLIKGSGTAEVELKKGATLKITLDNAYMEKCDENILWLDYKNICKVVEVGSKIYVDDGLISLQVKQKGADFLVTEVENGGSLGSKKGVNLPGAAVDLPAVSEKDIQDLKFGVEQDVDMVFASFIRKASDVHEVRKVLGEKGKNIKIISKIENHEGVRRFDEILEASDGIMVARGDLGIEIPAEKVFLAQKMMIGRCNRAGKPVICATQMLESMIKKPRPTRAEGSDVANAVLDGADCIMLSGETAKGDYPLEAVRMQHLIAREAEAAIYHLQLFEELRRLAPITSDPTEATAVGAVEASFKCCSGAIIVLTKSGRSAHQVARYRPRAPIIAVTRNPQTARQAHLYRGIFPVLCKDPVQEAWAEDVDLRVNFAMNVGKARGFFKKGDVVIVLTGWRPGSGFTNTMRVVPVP

Pyruvate kinase PKM [12] = molecular target: T1, Pyruvate kinase PKM; test: Inhibition of recombinant human N-terminal His6/SUMO-tagged PKM1 expressed in Escherichia coli BL21 using PEP as substrate incubated for 30 mins in presence of ADP by spectrophotometric based LDH enzyme coupled assay
Target sequence in this assay (P14618 whole entry): as above

HeLa [13] = test: Cell cycle arrest in human HeLa cells assessed as accumulation at G1 phase at 400 uM after 48 hrs by […]propidium iodide staining based flow cytometry (reference value: 66.69%); format: functional
HeLa [14] = test: Cell cycle arrest in human HeLa cells assessed as accumulation at S phase at 200 uM after 48 hrs by […]propidium iodide staining based flow cytometry (reference value: 25.41%); format: functional
Pyruvate kinase PKM [15] = molecular target: T1, Pyruvate kinase PKM; test: Binding affinity to PKM2 in human HeLa cells at 100 uM after 6 hrs in presence of biotin by Western blot analysis; format: cell-based
Target sequence in this assay (P14618 2-531 limits assumed): as the sequence (P14618 2-531 limits assumed) above

Pyruvate kinase PKM [16] = molecular target: T1, Pyruvate kinase PKM; test: Binding affinity to PKM2 in human MCF7 cells at 100 uM after 6 hrs by co-immunoprecipitation based Western blot analysis; format: cell-based
Target sequence in this assay (P14618 2-531 limits assumed): as above

Pyruvate kinase PKM [17] = molecular target: T1, Pyruvate kinase PKM; test: Binding affinity to PKM2 in human HeLa cells at 100 uM after 6 hrs by co-immunoprecipitation based Western blot analysis; format: cell-based
Target sequence in this assay (P14618 2-531 limits assumed): as above

Pyruvate kinase PKM [18] = molecular target: T1, Pyruvate kinase PKM; test: Binding affinity to PKM2 in human A549 cells at 100 uM after 6 hrs by co-immunoprecipitation based Western blot analysis; format: cell-based
Target sequence in this assay (P14618 2-531 limits assumed): as above

HeLa [19] = test: Induction of apoptosis in human HeLa cells at 200 to 400 uM after 48 hrs by Annexin V/propidium iodide staining based flow cytometry; format: functional, cell-based
HeLa [20] = test: Cell cycle arrest in human HeLa cells assessed as accumulation at S phase at 400 uM after 48 hrs by […]propidium iodide staining based flow cytometry (reference value: 25.41%); format: functional
HeLa [21] = test: Cell cycle arrest in human HeLa cells assessed as accumulation at G2 phase at 400 uM after 48 hrs by […]propidium iodide staining based flow cytometry (reference value: 7.91%); format: functional
HeLa [22] = test: Cell cycle arrest in human HeLa cells assessed as accumulation at G2 phase at 200 uM after 48 hrs by […]propidium iodide staining based flow cytometry (reference value: 7.91%); format: functional
HeLa [23] = test: Cell cycle arrest in human HeLa cells assessed as accumulation at G1 phase at 200 uM after 48 hrs by […]propidium iodide staining based flow cytometry (reference value: 66.69%); format: functional
Pyruvate kinase PKM [24] = molecular target: T1, Pyruvate kinase PKM; test: Inhibition of PKM2 in human HeLa cells assessed as reduction in cellular glycolytic rate after 6 hrs; format: cell-based
Target sequence in this assay (P14618 2-531 limits assumed): as above

HeLa [25] = test: Induction of apoptosis in human HeLa cells assessed as increase in cleaved caspase 3 expression level at 100 to 400 uM by Western blot analysis; format: functional, cell-based
HeLa [26] = test: Activation of MEK/ERK/PIN1 pathway in human HeLa cells assessed as increase in MEK protein expression at 100 uM after 2 to 8 hrs by Western blot analysis; format: cell-based
HeLa [27] = test: Activation of MEK/ERK/PIN1 pathway in human HeLa cells assessed as increase in phosphorylated ERK1/2 expression at 100 uM after 2 to 8 hrs by Western blot analysis; format: cell-based
HeLa [28] = test: Down regulation of cyclin B expression level in human HeLa cells at 200 to 400 uM by Western blot analysis; format: functional, cell-based
HeLa [29] = test: Induction of apoptosis in human HeLa cells assessed as increase in Bax/Bcl-2 expression level at 100 to 400 uM by Western blot analysis; format: functional, cell-based
L-lactate dehydrogenase = L-lactate dehydrogenase (Homo sapiens, UniProt V9HWB9); test: Inhibition of LDH (unknown origin) assessed as reduction in NADH oxidation at 200 uM after 30 mins; details: 0.5 h
HeLa [30] = test: Activation of MEK/ERK/PIN1 pathway in human HeLa cells assessed as increase in PIN1 expression at 100 uM after 2 to 8 hrs by Western blot analysis; format: cell-based
HeLa [31] = test: Down regulation of CDK1 expression level in human HeLa cells at 200 to 400 uM by Western blot analysis; format: functional, cell-based
HeLa [32] = test: Effect on Glut1 expression level in human HeLa cells at 100 to 400 uM after 6 hrs by Western blot analysis; format: functional, cell-based

For `O=C1N[C@H]2[C@H](CS[C@H]2CCCCC(=O)Oc2ccc(-c3cc(=O)c4c(O)c(O)c(O)cc4o3)cc2)N1`, the remaining at 24 h, 200 µM [1] was 49%, the remaining at 6 h, 200 µM [2] was 97% and the remaining at 6 h, 200 µM [3] was 85%. The remaining at 12 h, 200 µM [4] was 37%, the remaining at 3 h, 200 µM [5] was 98% and the Activity (Pyruvate kinase PKM [6]) was “Active”. The remaining at 3 h, 200 µM [7] was 99%, the remaining at 12 h, 200 µM [8] was 50% and the remaining at 24 h, 200 µM [9] was 37%. The Activity (HeLa [10]) was “Active”.
Compound `CC(C)=CC[C@@H](O)C1=CC(=O)c2c(O)ccc(O)c2C1=O` [SHIKONIN] has a Ratio IC50 (Homo sapiens) of 20, an IC50 (Pyruvate kinase PKM [11]) of 0.5 µM and an IC50 (Pyruvate kinase PKM [12]) of 10 µM.
For `NCCOCCOCCNC(=O)CCCC[C@@H]1SC[C@@H]2NC(=O)N[C@@H]21`, the Activity (Pyruvate kinase PKM [6]) was “Active”.
`O=C(CCCC[C@@H]1SC[C@@H]2NC(=O)N[C@@H]21)NCCOCCOCCNC(=O)COc1ccc(-c2cc(=O)c3c(O)c(O)c(O)cc3o2)cc1` showed a remaining at 24 h, 200 µM [1] of 52%, a remaining at 6 h, 200 µM [2] of 87% and a remaining at 6 h, 200 µM [3] of 93%. The Activity (HeLa [13]) was 47.56%, the Activity (HeLa [14]) was 25.44% and the Activity (Pyruvate kinase PKM [15]) was “inactive”. The Activity (Pyruvate kinase PKM [16]) was “Active”, the remaining at 12 h, 200 µM [4] was 36% and the remaining at 3 h, 200 µM [5] was 89%. The Activity (Pyruvate kinase PKM [17]) was “Active”, the Activity (Pyruvate kinase PKM [6]) was “Active” and the Activity (Pyruvate kinase PKM [18]) was “Active”. The remaining at 3 h, 200 µM [7] was 98%, the Activity (HeLa [19]) was “Active” and the Activity (HeLa [20]) was 36.92%. It also gave an Activity (HeLa [21]) of 15.52%, a remaining at 12 h, 200 µM [8] of 54% and a remaining at 24 h, 200 µM [9] of 29%. For the same compound, the Activity (HeLa [22]) was 11.51%, the Activity (HeLa [10]) was “Active” and the Activity (HeLa [23]) was 63.05%.
In the case of `O=C(O)[C@H]1O[C@@H](Oc2cc3oc(-c4ccc(O)cc4)cc(=O)c3c(O)c2O)[C@H](O)[C@@H](O)[C@@H]1O`, the inhibition (Pyruvate kinase PKM [24]) is reported as “Dose-dependent effect”.
In the case of `O=c1cc(-c2ccc(O)cc2)oc2cc(O)c(O)c(O)c12` [SCUTELLAREIN], the Activity (HeLa [25]) is reported as “Active”, the Ratio IC50 (Homo sapiens) is reported as 8 and the IC50 (Pyruvate kinase PKM [11]) is reported as 12.5 µM. The Activity (HeLa [26]) was “Active”, the Activity (HeLa [13]) was 51.91% and the Activity (HeLa [14]) was 25.34%. The Activity (HeLa [27]) was “Active”, the Activity (HeLa [28]) was “Active” and the Activity (HeLa [19]) was “Active”. The Activity (HeLa [29]) was “Active”, the IC50 (Pyruvate kinase PKM [12]) was 100 µM and the “inhibition (INH)” value (L-lactate dehydrogenase) was “Not Active”. For the same compound, the Activity (HeLa [20]) was 31.89%, the Activity (HeLa [21]) was 16.19% and the inhibition (Pyruvate kinase PKM [24]) was “Dose-dependent effect”. For the same compound, the Activity (HeLa [30]) was “Active”, the Activity (HeLa [31]) was “Active” and the Activity (HeLa [22]) was 12.55%. For the same compound, the Activity (HeLa [10]) was “Active”, the Activity (HeLa [32]) was “inactive” and the Activity (HeLa [23]) was 62.11%.
In the case of `Cc1ccc(C)n1-c1ccc(O)c(C(=O)O)c1`, the Ratio IC50 (Homo sapiens) is reported as 8, the IC50 (Pyruvate kinase PKM [11]) is reported as 12.5 µM and the IC50 (Pyruvate kinase PKM [12]) is reported as 100 µM.

Reference: ChEMBL document CHEMBL4177700, “Scutellarin inhibits Hela cell growth and glycolysis by inhibiting the activity of pyruvate kinase M2” (Bioorg Med Chem Lett, 2017)
